Source: patent US20260327214A1, “1,3,4-OXADIAZOLE DERIVATIVE COMPOUNDS AS HISTONE DEACETYLASE 6 INHIBITOR, AND USES THEREOF” (CHONG KUN DANG PHARMACEUTICAL CORP., priority 2022, published 2026)
pIC50: −log10 of the molar value.

What was measured:
human recombinant HDAC1 = molecular target: T1, human recombinant HDAC1 (Homo sapiens, UniProt Q13547); assay: HDAC1 enzyme activity inhibition test (HDAC Fluorometric Drug Discovery Kit); assay type: biochemical; details: 30° C., 60 minutes, 10 μM substrate
T1 construct: purchased Enzo Life Science BML-SE456
T1 sequence (Q13547 whole entry): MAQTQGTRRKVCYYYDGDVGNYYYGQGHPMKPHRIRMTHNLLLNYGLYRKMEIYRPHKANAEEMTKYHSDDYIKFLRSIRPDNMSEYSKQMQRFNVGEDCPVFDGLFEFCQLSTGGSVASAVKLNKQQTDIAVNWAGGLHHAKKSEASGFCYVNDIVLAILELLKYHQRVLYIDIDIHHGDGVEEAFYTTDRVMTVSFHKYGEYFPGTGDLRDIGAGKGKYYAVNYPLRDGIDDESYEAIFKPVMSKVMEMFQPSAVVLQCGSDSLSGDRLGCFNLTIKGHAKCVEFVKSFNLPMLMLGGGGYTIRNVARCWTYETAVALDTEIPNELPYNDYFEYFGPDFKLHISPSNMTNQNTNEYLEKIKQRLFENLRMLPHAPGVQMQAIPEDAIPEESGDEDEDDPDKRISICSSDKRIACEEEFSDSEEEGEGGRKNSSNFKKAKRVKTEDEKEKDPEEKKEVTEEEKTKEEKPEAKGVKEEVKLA
Procedure, shortened: (§1)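 Recombinant human HDAC1 or HDAC6 (0.3 μg) reacted with 10 μM Fluor de Lys SIRT1 substrate and 5-fold diluted compound for 60 min at 30 °C. Developer II added 30 min; fluorescence read at Ex 360/Em 460 and IC50 calculated.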

human recombinant HDAC6 = molecular target: T2, human recombinant HDAC6 (Homo sapiens, UniProt Q9UBN7); assay: HDAC6 enzyme activity inhibition test (HDAC Fluorometric Drug Discovery Kit); assay type: biochemical; details: for HDAC6 selectivity (fold): HDAC6 over HDAC1; for pIC50: human recombinant HDAC6, same protocol as HDAC1
T2 construct: purchased Calbiochem 382180
T2 sequence (Q9UBN7 1-1215): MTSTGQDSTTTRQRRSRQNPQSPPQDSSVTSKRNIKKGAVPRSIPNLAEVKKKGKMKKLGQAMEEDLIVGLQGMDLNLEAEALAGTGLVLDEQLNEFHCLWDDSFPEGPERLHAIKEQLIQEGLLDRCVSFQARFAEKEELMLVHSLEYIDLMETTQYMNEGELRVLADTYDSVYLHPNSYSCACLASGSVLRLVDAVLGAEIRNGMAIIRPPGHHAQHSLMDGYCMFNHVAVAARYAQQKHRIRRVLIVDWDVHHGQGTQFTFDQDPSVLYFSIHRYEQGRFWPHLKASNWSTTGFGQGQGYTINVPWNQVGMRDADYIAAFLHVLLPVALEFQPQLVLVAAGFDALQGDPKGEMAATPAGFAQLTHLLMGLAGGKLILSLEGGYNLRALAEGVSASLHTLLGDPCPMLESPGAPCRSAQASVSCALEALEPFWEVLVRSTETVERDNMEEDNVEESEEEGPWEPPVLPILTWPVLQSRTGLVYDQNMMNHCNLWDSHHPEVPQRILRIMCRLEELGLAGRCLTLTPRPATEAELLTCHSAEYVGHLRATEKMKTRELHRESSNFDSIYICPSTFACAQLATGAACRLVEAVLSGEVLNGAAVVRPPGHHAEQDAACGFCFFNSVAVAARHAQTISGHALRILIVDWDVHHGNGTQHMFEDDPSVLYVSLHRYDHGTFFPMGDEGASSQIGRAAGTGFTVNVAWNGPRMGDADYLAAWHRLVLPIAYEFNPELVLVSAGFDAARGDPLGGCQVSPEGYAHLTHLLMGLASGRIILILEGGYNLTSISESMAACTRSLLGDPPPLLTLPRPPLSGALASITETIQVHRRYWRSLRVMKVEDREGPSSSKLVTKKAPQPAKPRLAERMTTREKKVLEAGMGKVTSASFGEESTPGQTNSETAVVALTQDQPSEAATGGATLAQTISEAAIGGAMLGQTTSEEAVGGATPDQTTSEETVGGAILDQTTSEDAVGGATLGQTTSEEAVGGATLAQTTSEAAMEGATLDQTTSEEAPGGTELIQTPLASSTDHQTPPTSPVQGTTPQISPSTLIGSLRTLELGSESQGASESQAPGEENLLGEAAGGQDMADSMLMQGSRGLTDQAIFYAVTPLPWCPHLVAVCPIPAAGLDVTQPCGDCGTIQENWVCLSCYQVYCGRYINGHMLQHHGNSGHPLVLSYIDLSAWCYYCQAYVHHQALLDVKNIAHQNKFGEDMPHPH
Procedure, shortened: as §1

| Structure (SMILES) | pIC50 (human recombinant HDAC1) | HDAC6 selectivity (fold) (human recombinant HDAC6) | pIC50 (human recombinant HDAC6) |
| --- | --- | --- | --- |
| CCN1CCN(c2cccc(-c3nn(Cc4ncc(-c5nnc(C(F)F)o5)cc4F)c(=S)o3)n2)CC1 [Compound 103, 3-[[5-[5-(difluoromethyl)-1,3,4-oxadiazol-2-yl]-3-fluoro-2-pyridyl]methyl]-5-[6-(4-ethylpiperazin-1-yl)-2-pyridyl]-1,3,4-oxadiazol-2-thione] | < 4.30 | 1302 | 7.42 |
| CC(C)N1CCN(c2cccc(-c3nn(Cc4ncc(-c5nnc(C(F)F)o5)cc4F)c(=S)o3)n2)CC1 [Compound 104, 3-[[5-[5-(difluoromethyl)-1,3,4-oxadiazol-2-yl]-3-fluoro-2-pyridyl]methyl]-5-[6-(4-isopropylpiperazin-1-yl)-2-pyridyl]-1,3,4-oxadiazol-2-thione] | < 4.30 | 1163 | 7.37 |
| CC(C)N1CCN(c2cc(-c3nn(Cc4ccc(-c5nnc(C(F)F)o5)cn4)c(=S)o3)ccn2)CC1 [Compound 105, 3-[[5-[5-(difluoromethyl)-1,3,4-oxadiazol-2-yl]-2-pyridyl]methyl]-5-[2-(4-isopropylpiperazin-1-yl)-4-pyridyl]-1,3,4-oxadiazol-2-thione] | < 4.30 | 734 | 7.17 |
| FC(F)c1nnc(-c2ccc(Cn3nc(-c4ccnc(N5CCN(C6CCCC6)CC5)c4)oc3=S)nc2)o1 [Compound 106, 5-[2-(4-cyclopentylpiperazin-1-yl)-4-pyridyl]-3-[[5-[5-(difluoromethyl)-1,3,4-oxadiazol-2-yl]-2-pyridyl]methyl]-1,3,4-oxadiazol-2-thione] | < 4.30 | 639 | 7.11 |
| CN(C)Cc1ccc(-c2nn(Cc3ncc(-c4nnc(C(F)F)o4)cc3F)c(=S)o2)cc1 [Compound 107, 3-[[5-[5-(difluoromethyl)-1,3,4-oxadiazol-2-yl]-3-fluoro-2-pyridyl]methyl]-5-[4-[(dimethylamino)methyl]phenyl]-1,3,4-oxadiazol-2-thione] | < 4.30 | 1163 | 7.37 |
| CNCc1ccc(-c2nn(Cc3ncc(-c4nnc(C(F)F)o4)cc3F)c(=S)o2)cc1 [Compound 108, 3-[[5-[5-(difluoromethyl)-1,3,4-oxadiazol-2-yl]-3-fluoro-2-pyridyl]methyl]-5-[4-(methylaminomethyl)phenyl]-1,3,4-oxadiazol-2-thione] | < 4.30 | 1475 | 7.47 |
| CCN(CC)Cc1ccc(-c2nn(Cc3ncc(-c4nnc(C(F)F)o4)cc3F)c(=S)o2)cc1 [Compound 109, 5-[4-(diethylaminomethyl)phenyl]-3-[[5-[5-(difluoromethyl)-1,3,4-oxadiazol-2-yl]-3-fluoro-2-pyridyl]methyl]-1,3,4-oxadiazol-2-thione] | < 4.30 | 1020 | 7.31 |
| Fc1cc(-c2nnc(C(F)F)o2)cnc1Cn1nc(-c2ccc(CN3CC(F)C3)cc2)oc1=S [Compound 110, 3-[[5-[5-(difluoromethyl)-1,3,4-oxadiazol-2-yl]-3-fluoro-2-pyridyl]methyl]-5-[4-[(3-fluoroazetidine-1-yl)methyl]phenyl]-1,3,4-oxadiazol-2-thione] | < 4.30 | 919 | 7.26 |
| CC1CCN(Cc2ccc(-c3nn(Cc4ncc(-c5nnc(C(F)F)o5)cc4F)c(=S)o3)cc2)CC1 [Compound 111, 3-[[5-[5-(difluoromethyl)-1,3,4-oxadiazol-2-yl]-3-fluoro-2-pyridyl]methyl]-5-[4-[(4-methyl-1-piperidyl)methyl]phenyl]-1,3,4-oxadiazol-2-thione] | < 4.30 | 549 | 7.04 |

The remaining lines, values ahead:

| pIC50 (human recombinant HDAC1) | HDAC6 selectivity (fold) (human recombinant HDAC6) | pIC50 (human recombinant HDAC6) | Structure (SMILES) |
| --- | --- | --- | --- |
| < 4.30 | 980 | 7.29 | Fc1cc(-c2nnc(C(F)F)o2)cnc1Cn1nc(-c2ccc(CN3CCCCC3)cc2)oc1=S [Compound 112, 3-[[5-[5-(difluoromethyl)-1,3,4-oxadiazol-2-yl]-3-fluoro-2-pyridyl]methyl]-5-[4-(1-piperidylmethyl)phenyl]-1,3,4-oxadiazol-2-thione] |
| < 4.30 | 778 | 7.19 | Fc1cc(-c2nnc(C(F)F)o2)cnc1Cn1nc(-c2ccc(CN3CC[C@@H](F)C3)cc2)oc1=S [Compound 113, 3-[[5-[5-(difluoromethyl)-1,3,4-oxadiazol-2-yl]-3-fluoro-2-pyridyl]methyl]-5-[4-[[(3R)-3-fluoropyrrolidin-1-yl]methyl]phenyl]-1,3,4-oxadiazol-2-thione] |
| < 4.30 | 824 | 7.22 | Fc1cc(-c2nnc(C(F)F)o2)cnc1Cn1nc(-c2ccc(CN3CC[C@H](F)C3)cc2)oc1=S [Compound 114, 3-[[5-[5-(difluoromethyl)-1,3,4-oxadiazol-2-yl]-3-fluoro-2-pyridyl]methyl]-5-[4-[[(3S)-3-fluoropyrrolidin-1-yl]methyl]phenyl]-1,3,4-oxadiazol-2-thione] |
| < 4.30 | 483 | 6.99 | CN1CCC(c2cc(-c3nn(Cc4ccc(-c5nnc(C(F)F)o5)cn4)c(=S)o3)ccc2F)CC1 [Compound 115, 3-[[5-[5-(difluoromethyl)-1,3,4-oxadiazol-2-yl]-2-pyridyl]methyl]-5-[4-fluoro-3-(1-methyl-4-piperidyl)phenyl]-1,3,4-oxadiazol-2-thione] |
| < 4.30 | 429 | 6.93 | CC(C)N1CCC(c2cc(-c3nn(Cc4ccc(-c5nnc(C(F)F)o5)cn4)c(=S)o3)ccc2F)CC1 [Compound 116, 3-[[5-[5-(difluoromethyl)-1,3,4-oxadiazol-2-yl]-2-pyridyl]methyl]-5-[4-fluoro-3-(1-isopropyl-4-piperidyl)phenyl]-1,3,4-oxadiazol-2-thione] |
| < 4.30 | 675 | 7.13 | CN(C)Cc1cccc(-c2nn(Cc3ncc(-c4nnc(C(F)F)o4)cc3F)c(=S)o2)c1 [Compound 117, 3-[[5-[5-(difluoromethyl)-1,3,4-oxadiazol-2-yl]-3-fluoro-2-pyridyl]methyl]-5-[3-[(dimethylamino)methyl]phenyl]-1,3,4-oxadiazol-2-thione] |
| < 4.30 | 742 | 7.17 | Fc1cc(-c2nnc(C(F)F)o2)cnc1Cn1nc(-c2cccc(CN3CCC3)c2)oc1=S [Compound 118, 5-[3-(azetidine-1-ylmethyl)phenyl]-3-[[5-[5-(difluoromethyl)-1,3,4-oxadiazol-2-yl]-3-fluoro-2-pyridyl]methyl]-1,3,4-oxadiazol-2-thione] |
| < 4.30 | 590 | 7.07 | Fc1cc(-c2nnc(C(F)F)o2)cnc1Cn1nc(-c2cccc(CN3CCCCC3)c2)oc1=S [Compound 119, 3-[[5-[5-(difluoromethyl)-1,3,4-oxadiazol-2-yl]-3-fluoro-2-pyridyl]methyl]-5-[3-(1-piperidylmethyl)phenyl]-1,3,4-oxadiazol-2-thione] |
| < 4.30 | 630 | 7.10 | CCN(CC)Cc1cccc(-c2nn(Cc3ncc(-c4nnc(C(F)F)o4)cc3F)c(=S)o2)c1 [Compound 120, 5-[3-(diethylaminomethyl)phenyl]-3-[[5-[5-(difluoromethyl)-1,3,4-oxadiazol-2-yl]-3-fluoro-2-pyridyl]methyl]-1,3,4-oxadiazol-2-thione] |
